Laboratory results reported in patent US20040248801A1, “Methods and reagents for regulation of cellular responses in biological systems” (priority 2000, published 2004).

Tested on: bacterial chemoreceptors of E. coli AW405 or RP 1078 (cheW)
Assay: immunofluorescence microscopy of chemoreceptor organization
Format: cell-based, Escherichia coli
Conditions: E. coli cheW mutants, 5 mM, anti-Tsr labeling
Experimental: Fluorescence microscopy experiments were performed to visualize changes in chemotaxis receptor organization upon treatment with saccharide-carrying ligands. These experiments can determine directly whether or not multivalent ligands can influence chemoreceptor reorganization. It had been shown that wild-type E. coli localize chemoreceptors to their poles and that inactivation of the structural protein, CheW, results in a random distribution of chemoreceptors on the cell. The ability of ROMP-derived arrays to localize the chemoreceptors was examined using E. coli cheWmutants. Bacteria were treated with 1, 3, or 4, fixed, and labeled with an antibody to the bacterial chemoreceptors (anti-Tsr). […]
To confirm the ability of multivalent ligands to alter the organization of the chemoreceptors in the bacterial membrane E. coli were treated with compound 8, a galactose-bearing multivalent ligand having a fluorescent label (Scheme 1). When E. coli were treated with 8 or a fluorescein-labeled anti-Tsr antibody 14, the fluorescence patterns observed were similar. […]
E. coli AW405 or RP 1078 (cheW) were pretreated with buffer alone or with compounds 1, 3, 4, or 8 at 5 mM in a 10 μL total volume of chemotaxis buffer. […] Fluorescence microscopy was performed on a Zeiss Axioscope at 1000×using an oil immersion lens. […]

O=C(NCCOC1OC(CO)C(O)C(O)C1O)C1C[C@@H]2C=CC1C2 (stereo partly shown) [Compound 1]
effect on chemoreceptor distribution: no effect on receptor distribution
